From patent US11351178B2, “Selective HDAC6 inhibitors” (ITALFARMACO S.P.A., priority 2017, dated 2022)
pIC50: −log10 of the molar value.

Assays:
recombinant human HDAC6 = biological target: T1, recombinant human HDAC6 (Homo sapiens, UniProt Q9UBN7); experiment: Enzymatic screening on recombinant human HDAC6; format: biochemical; conditions: Table 2; read-out: HDAC6 IC50
T1 sequence (Q9UBN7 1-1215): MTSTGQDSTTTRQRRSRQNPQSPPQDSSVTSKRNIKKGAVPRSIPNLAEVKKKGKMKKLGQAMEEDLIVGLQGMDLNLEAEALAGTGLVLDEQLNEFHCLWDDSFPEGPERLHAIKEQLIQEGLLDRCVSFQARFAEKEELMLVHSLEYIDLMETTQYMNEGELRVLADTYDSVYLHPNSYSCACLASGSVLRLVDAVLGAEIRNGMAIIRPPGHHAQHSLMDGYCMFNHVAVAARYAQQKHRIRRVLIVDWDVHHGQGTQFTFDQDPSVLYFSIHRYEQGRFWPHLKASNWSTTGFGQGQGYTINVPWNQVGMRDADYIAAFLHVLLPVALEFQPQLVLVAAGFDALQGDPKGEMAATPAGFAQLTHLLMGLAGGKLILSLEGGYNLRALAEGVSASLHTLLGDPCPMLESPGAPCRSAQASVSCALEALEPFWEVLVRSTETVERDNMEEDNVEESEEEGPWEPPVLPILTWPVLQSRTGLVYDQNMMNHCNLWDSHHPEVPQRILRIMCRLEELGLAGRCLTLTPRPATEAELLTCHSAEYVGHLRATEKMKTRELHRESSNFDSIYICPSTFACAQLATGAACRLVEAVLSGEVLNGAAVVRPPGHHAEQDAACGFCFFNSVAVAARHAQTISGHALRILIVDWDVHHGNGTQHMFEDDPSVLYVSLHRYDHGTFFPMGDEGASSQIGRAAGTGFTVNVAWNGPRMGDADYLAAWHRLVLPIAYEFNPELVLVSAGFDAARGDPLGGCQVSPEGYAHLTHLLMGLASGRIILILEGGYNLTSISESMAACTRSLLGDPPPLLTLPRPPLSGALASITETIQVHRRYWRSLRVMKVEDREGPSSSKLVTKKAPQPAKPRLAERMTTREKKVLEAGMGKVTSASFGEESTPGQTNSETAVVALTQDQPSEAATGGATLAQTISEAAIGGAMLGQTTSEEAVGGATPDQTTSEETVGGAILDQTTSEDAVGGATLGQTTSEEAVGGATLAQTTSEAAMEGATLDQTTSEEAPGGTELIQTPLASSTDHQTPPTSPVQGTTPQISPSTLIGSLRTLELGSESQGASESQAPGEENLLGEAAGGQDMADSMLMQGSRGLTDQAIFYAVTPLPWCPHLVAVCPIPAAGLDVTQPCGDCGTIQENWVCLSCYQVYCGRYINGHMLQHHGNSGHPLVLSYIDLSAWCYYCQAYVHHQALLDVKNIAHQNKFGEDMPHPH
Procedure, shortened: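 Step one: pre-incubate recombinant human HDAC with test compound at 30 °C, with duration set per isoform. Step two: add fluorogenic-type acetyl-lysine substrate (FLUOR DE LYS, its Green variant, or trifluoroacetyl-L-lysine), 2× concentrated in Tris-HCl pH 8 buffer with NaCl, Tween-20 and glycerol. Step three: react at 30 °C.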

[1] = tested on: B 697 promyelocytic cell line; experiment: Cytotoxicity on 697 cell line (CellTiter 96); format: cell-based; conditions: 72 hours incubation, read-out: 697 TOXICITY
Experimental: Cytotoxic activity was evaluated on B 697 […] cell line for all synthesized compounds and on peripheral blood mononuclear cells (PBMCs) for compounds showing a good potency/selectivity profile.
Cells were seeded in plate (2×10^4 cells per well for 697, 5×10^5 cells per well for PBMCs). The test compounds (concentrations from 1.5 nM to 10000 nM for PBMCs and from 1 nM to 10000 nM for 697) were added after 24 hours and incubated 72 hours. The molecules cytotoxic activity was evaluated using CellTiter 96© Aqueous One Solution Cell Proliferation Assay (Promega), which measures the mitochondria function, following the manufacturer's instructions.

[2] = Stability to Phase I metabolism in rat S9 liver fraction; format: in vitro ADME; conditions: after 90 min, 37° C.
Experimental: Test compounds were incubated in rat and human liver S9 fraction at 37° C. up to 90 minutes in order to evaluate their stability to Phase I metabolism by hepatic enzymes. […] The reaction was stopped placing samples on ice bath and adding acidified acetonitrile. After centrifugation (10 minutes at 14000 rpm) an aliquot of the supernatant was diluted water, filtered with 0.45 μm regenerated cellulose syringe filters and injected in HPLC-UV or in LC-MS/MS. The percentages of the amount remaining at the various incubation times with respect to the initial amount were calculated. The intrinsic clearance was also calculated.

Stability in rat plasma = format: in vitro ADME; conditions: after 4 hours, 37° C.
Experimental: In order to evaluate the stability to circulating enzymes, test compounds were incubated in human and rat plasma at 37° C. in a thermostated oscillating bath. Each test compound was incubated at μM (50 μM when the samples were analysed by UV/HPLC, 1 or 2 μM when the samples were analysed by LC-MS/MS) concentration for 0, 15, 30 min and 1, 2 and 4 hours. The reaction was stopped placing tubes on ice bath and adding acidified acetonitrile. After centrifugation for 10 minutes at 14000 rpm, an aliquot of the supernatant was diluted with water, filtered with 0.45 μm syringe filters and injected in HPLC-UV or in LC-MS/MS. The percentages of amount remaining at the various times of incubation with respect to initial amount were calculated. The half-life in plasma was also calculated.

Row | Structure (SMILES) | pIC50 (recombinant human HDAC6) | residual percentage in rat S9 fraction [2] [%] | residual percentage in rat plasma (Stability in rat plasma) [%] | pIC50 [1]
1 | O=C(O)c1ccc(Cc2nnn(Cc3ccc(C(=O)NO)cc3)n2)cc1 [comp. 158, 4-[[2-[[4-(hydroxycarbamoyl)phenyl]methyl]tetrazol-5-yl]methyl]benzoic acid] | 6.64 | – | – | 4.77
2 | O=C(O)c1ccc(Cc2nnn(Cc3c(F)cc(C(=O)NO)cc3F)n2)cc1 [comp. 160, 4-[[2-[[2,6-difluoro-4-(hydroxycarbamoyl)phenyl]methyl]tetrazol-5-yl]methyl]benzoic acid] | 6.94 | – | – | 4.77
3 | NCc1ccc(-c2nnnn2Cc2ccc(C(=O)NO)cc2)cc1 [comp. 174, 4-[[5-[4-(aminomethyl)phenyl]tetrazol-1-yl]methyl]benzenecarbohydroxamic acid] | 6.89 | – | – | 4.30
4 | Cn1c(Sc2ccc(C(=O)NO)cc2)nnc1C1CCN(C(=O)OC(C)(C)C)CC1 [comp. 82, tert-butyl 4-[5-[4-(hydroxycarbamoyl)phenyl]sulfanyl-4-methyl-1,2,4-triazol-3-yl]piperidine-1-carboxylate] | 7.57 | – | – | 5.19
5 | COc1ccc(-c2nc(Cc3ccc(C(=O)NO)cc3)no2)cc1OC [comp. 49, 4-[[5-(3,4-dimethoxyphenyl)-1,2,4-oxadiazol-3-yl]methyl]benzenecarbohydroxamic acid] | 8.15 | 57 | 82 | –
6 | O=C(NO)c1ccc(Cc2nnc(-c3ccccc3)o2)cc1 [comp. 68, 4-[(5-phenyl-1,3,4-oxadiazol-2-yl)methyl]benzenecarbohydroxamic acid] | 8.40 | 34 | 77 | –
7 | COc1ccc(-c2nnc(Cc3ccc(C(=O)NO)cc3)o2)cc1OC [comp. 57, 4-[[5-(3,4-dimethoxyphenyl)-1,3,4-oxadiazol-2-yl]methyl]benzenecarbohydroxamic acid] | 8.10 | 71 | 94 | –
8 | O=C(NO)c1cc(F)c(Cn2nnc(-c3ccc4ccccc4n3)n2)c(F)c1 [comp. 95, 3,5-difluoro-4-[[5-(2-quinolyl)tetrazol-2-yl]methyl]benzenecarbohydroxamic acid] | 8.00 | 41 | 75 | –
9 | O=C(NO)c1cc(F)c(Cn2nnnc2-c2ccc3ccccc3n2)c(F)c1 [comp. 96, 3,5-difluoro-4-[[5-(2-quinolyl)tetrazol-1-yl]methyl]benzenecarbohydroxamic acid] | 8.15 | 41 | 99 | –
10 | Cn1c(Sc2c(F)cc(C(=O)NO)cc2F)nnc1-c1sc2ncccc2c1N [comp. 99, 4-[[5-(3-aminothieno[2,3-b]pyridin-2-yl)-4-methyl-1,2,4-triazol-3-yl]sulfanyl]-3,5-difluoro-benzenecarbohydroxamic acid] | 8.15 | 108 | 91 | –
11 | O=C(NO)c1cc(F)c(Cn2nnnc2Cc2ccccn2)c(F)c1.O=C(O)C(F)(F)F [comp. 135, 3,5-difluoro-4-[[5-(2-pyridylmethyl)tetrazol-1-yl]methyl]benzenecarbohydroxamic acid;2,2,2-trifluoroacetic acid] | 7.03 | 96 | 78 | –

The next lines start with results.

Row | pIC50 (recombinant human HDAC6) | residual percentage in rat S9 fraction [2] [%] | residual percentage in rat plasma (Stability in rat plasma) [%] | Structure (SMILES) | pIC50 [1]
12 | 8.10 | – | – | Nc1ccc(-c2nnnn2Cc2ccc(C(=O)NO)cc2)cc1 [comp. 170, 4-[[5-(4-aminophenyl)tetrazol-1-yl]methyl]benzenecarbohydroxamic acid] | 4.21
13 | 7.92 | – | – | O=C(O)c1cccc(-c2nnn(Cc3ccc(C(=O)NO)cc3)n2)c1 [comp. 163, 3-[2-[[4-(hydroxycarbamoyl)phenyl]methyl]tetrazol-5-yl]benzoic acid] | 4.31
14 | 6.67 | – | – | O=C(NO)c1ccc(Cn2c(Cc3c[nH]c4ccccc34)nnc2-c2cccs2)cc1 [compound 183, 4-((3-((1H-indol-3-yl)methyl)-5-(thiophen-2-yl)-4H-1,2,4-triazol-4-yl)methyl)-N-hydroxybenzamide] | 4.30
15 | 6.00 | – | – | COc1ccc(Cc2nnc(-c3cccs3)n2Cc2ccc(C(=O)NO)cc2)cc1OC [comp. 185, 4-[[3-[(3,4-dimethoxyphenyl)methyl]-5-(2-thienyl)-1,2,4-triazol-4-yl]methyl]benzenecarbohydroxamic acid] | 4.98
16 | 6.76 | – | – | COC(=O)c1ccc(Cc2nnnn2Cc2c(F)cc(C(=O)NO)cc2F)cc1 [comp. 155, methyl 4-[[1-[[2,6-difluoro-4-(hydroxycarbamoyl)phenyl]methyl]tetrazol-5-yl]methyl]benzoate] | 4.64
17 | 7.74 | 9 | 73 | Cn1c(Sc2c(F)cc(C(=O)NO)cc2F)nnc1C1(c2ccccc2)CCC1 [comp. 101, 3,5-difluoro-4-[[4-methyl-5-(1-phenylcyclobutyl)-1,2,4-triazol-3-yl]sulfanyl]benzenecarbohydroxamic acid] | –
18 | 7.60 | 63 | 49 | CCn1c(Sc2ccc(C(=O)NO)cc2)nnc1-c1ccc(F)cc1 [comp. 30, 4-[[4-ethyl-5-(4-fluorophenyl)-1,2,4-triazol-3-yl]sulfanyl]benzenecarbohydroxamic acid] | –
19 | 6.49 | – | – | O=C(O)c1ccc(Cc2nnnn2Cc2c(F)cc(C(=O)NO)cc2F)cc1 [comp. 161, 4-[[1-[[2,6-difluoro-4-(hydroxycarbamoyl)phenyl]methyl]tetrazol-5-yl]methyl]benzoic acid] | 4.77
20 | 6.38 | 87 | 32 | COc1ccc(Cc2nc(Cc3ccc(C(=O)NO)cc3)n(-c3ccc(C(F)(F)F)cc3)n2)cc1OC [comp. 44, 4-[[5-[(3,4-dimethoxyphenyl)methyl]-2-[4-(trifluoromethyl)phenyl]-1,2,4-triazol-3-yl]methyl]benzenecarbohydroxamic acid] | –
21 | 6.90 | 55 | 83 | Cc1nc(Sc2ccc(C(=O)NO)cc2)nn1-c1ccc(Cl)cc1Cl [comp. 62, 4-[[1-(2,4-dichlorophenyl)-5-methyl-1,2,4-triazol-3-yl]sulfanyl]benzenecarbohydroxamic acid] | –
22 | 8.05 | 18 | 79 | COc1ccc(-c2nnn(Cc3ccc(C(=O)NO)cc3)n2)cc1OCc1ccccc1 [comp. 70, 4-[[5-(3-benzyloxy-4-methoxy-phenyl)tetrazol-2-yl]methyl]benzenecarbohydroxamic acid] | –
